Key:
Format in all cases: in vivo
Lolium perenne (LOLPE) [1] = assay: Glasshouse herbicide test, post-emergence application; conditions: 250 g/h, evaluated after 13 days
Protocol: (§1) Seeds of a variety of test species are sown in standard soil in pots (Lolium perenne (LOLPE), Setaria faberi (SETFA), Echinochloa crus-galli (ECHCG), Avena fatua (AVEFA)). After cultivation for one day (pre-emergence) or after 8 days cultivation (post-emergence) under controlled conditions in a glasshouse (at 24/16° C., day/night; 14 hours light; 65% humidity), the plants are sprayed with an aqueous spray solution derived from the formulation of the technical active ingredient in acetone/water (50:50) solution containing 0.5% Tween 20 (polyoxyethelyene sorbitan monolaurate, CAS RN 9005-64-5). Compounds are applied at 250 g/h. The test plants are then grown in a glasshouse under controlled conditions in a glasshouse (at 24/16° C., day/night; 14 hours light; 65% humidity) and watered twice daily. After 13 days for pre and post-emergence, the test is evaluated for the percentage damage caused to the plant. The biological activities are shown in the following table on a five point scale (5=80-100%; 4=60-79%; 3=40-59%; 2=20-39%; 1=0-19%).

Setaria faberi (SETFA) [2] = assay: as above; conditions: 250 g/h, evaluated after 13 days
Protocol: as §1

[3] = tested on: Echinochloa crus-galli (ECHCG); assay: as above; conditions: 250 g/h, evaluated after 13 days
Protocol: as §1

Avena fatua (AVEFA) [4] = assay: as above; conditions: 250 g/h, evaluated after 13 days
Protocol: as §1

[5] = tested on: Panicum miliaceum (PANMI); assay: Prior art comparison, post-emergence, representative weed; conditions: for PANMI (percentage damage): post-emergence
Lolium perenne (LOLPE) [6] = assay: Glasshouse herbicide test, pre-emergence application; conditions: 250 g/h, evaluated after 13 days
Protocol: as §1

Setaria faberi (SETFA) [7] = assay: as above; conditions: 250 g/h, evaluated after 13 days
Protocol: as §1

[8] = tested on: Echinochloa crus-galli (ECHCG); assay: as above; conditions: 250 g/h, evaluated after 13 days
Protocol: as §1

Avena fatua (AVEFA) [9] = assay: as above; conditions: 250 g/h, evaluated after 13 days
Protocol: as §1

barley = assay: Prior art comparison, post-emergence, crop plants
wheat = assay: Prior art comparison, post-emergence, crop plants; conditions: for Wheat (percentage damage): post-emergence

Row | Structure (SMILES) | percentage damage caused to the plant, five point scale, LOLPE (Lolium perenne (LOLPE) [1]) | percentage damage caused to the plant, five point scale, SETFA (Setaria faberi (SETFA) [2]) | percentage damage caused to the plant, five point scale, ECHCG [3] | percentage damage caused to the plant, five point scale, AVEFA (Avena fatua (AVEFA) [4]) | PANMI (percentage damage) ([5]; Rate 60) | PANMI (percentage damage) ([5]; Rate 125) | overall weed control ([5]; summary of Table B3) | percentage damage caused to the plant, five point scale, LOLPE (Lolium perenne (LOLPE) [6]) | percentage damage caused to the plant, five point scale, SETFA (Setaria faberi (SETFA) [7]) | percentage damage caused to the plant, five point scale, ECHCG [8] | percentage damage caused to the plant, five point scale, AVEFA (Avena fatua (AVEFA) [9]) | Barley (percentage damage) (barley; Rate 60) | Barley (percentage damage) (barley; Rate 125) | Wheat (percentage damage) (wheat; Rate 60) | Wheat (percentage damage) (wheat; Rate 60 + CQC (safener cloquintocet-mexyl at 50 g/ha)) | Wheat (percentage damage) (wheat; Rate 125) | crop safety vis-à-vis prior art compound C1 (wheat; wheat and barley, summary of Table B3)
1 | CC#Cc1cc(C)c(C2C(=O)CC3(CC2=O)CN(C(C)=O)C3)c(C)c1 [Compound 1.001, 2-acetyl-7-(2,6-dimethyl-4-prop-1-ynyl-phenyl)-2-azaspiro[3.5]nonane-6,8-dione] | 5 (5=80-100%) | 5 (5=80-100%) | 5 (5=80-100%) | 5 (5=80-100%) | 100 | 100 | good overall weed control | 5 (5=80-100%) | 5 (5=80-100%) | 2 (2=20-39%) | 5 (5=80-100%) | 0 | 0 | 0 | 0 | 0 | significantly improved crop safety
2 | CC#Cc1cc(C)c(C2C(=O)CC3(CC2=O)CN(C(=O)NC(=O)C(C)(C)C)C3)c(OC)c1 [Compound 1.019] | 5 (5=80-100%) | 5 (5=80-100%) | 4 (4=60-79%) | 5 (5=80-100%) |  |  |  | 4 (4=60-79%) | 4 (4=60-79%) | 5 (5=80-100%) | 4 (4=60-79%) |  |  |  |  |  | 
3 | CC#Cc1cc(C)c(C2C(=O)CC3(CC2=O)CN(C(=O)c2ccccc2)C3)c(OC)c1 [Compound 1.015] | 5 (5=80-100%) | 5 (5=80-100%) | 5 (5=80-100%) | 5 (5=80-100%) |  |  |  | 5 (5=80-100%) | 5 (5=80-100%) | 5 (5=80-100%) | 5 (5=80-100%) |  |  |  |  |  | 
4 | CC#Cc1cc(C)c(C2C(=O)CC3(CC2=O)CN(C(=O)C(C)(C)C)C3)c(C)c1 [Compound 1.010] | 5 (5=80-100%) | 5 (5=80-100%) | 5 (5=80-100%) | 5 (5=80-100%) |  |  |  | 5 (5=80-100%) | 5 (5=80-100%) | 5 (5=80-100%) | 5 (5=80-100%) |  |  |  |  |  | 
